Literature values as cited in patent publication US20080153788A1, “NOVEL COMPOSITION TO INCREASE MUSCLE STRENGTH” (ORAL DELIVERY TECHNOLOGIES, priority 2006, published 2008).

Assays:
[1] = humans; prior-art description
[2] = for injection

| Structure (SMILES) | period over which concentration declines after the peak [1] [h] | time to concentration peak after administration [1] [min] | solubility in oily media [2] |
| --- | --- | --- | --- |
| C[C@]12CC[C@H]3[C@@H](CCC4=CC(O)CC[C@@]43C)[C@@H]1CC[C@@H]2O (stereo partly drawn) [4-androstene-3,17β-diol] | 3 to 4 | ≤ 90 |  |
| CCCCCCCCCCC(=O)O[C@H]1CC[C@H]2[C@H]3[C@H](CC[C@]12C)[C@H]1CCC(=O)C=C1C[C@H]3C [MENT undecanoate, (7α,17β)-7-methyl-17-[(1-α-oundecyl)oxy]estr-4en-3one] |  |  | good solubility |
